# Measurements from PMC4222822, “Discovery and Characterization of a Potent and Selective Inhibitor of Aedes aegypti Inward Rectifier Potassium Channels” (PLoS ONE, 2014).
# pIC50: −log10 of the molar value.
# Columns and labels:
# Kir4.1 = target: T1, Kir4.1 (Homo sapiens, UniProt P78508); assay: Tl+ flux selectivity assay, Kir4.1; assay type: cell-based; details: n = 2 independent experiments in triplicate, read-out: Inhibition of Tl+ flux (IC50)
# T1 construct: expressed in transfected cells
# T1 sequence (P78508 1-379): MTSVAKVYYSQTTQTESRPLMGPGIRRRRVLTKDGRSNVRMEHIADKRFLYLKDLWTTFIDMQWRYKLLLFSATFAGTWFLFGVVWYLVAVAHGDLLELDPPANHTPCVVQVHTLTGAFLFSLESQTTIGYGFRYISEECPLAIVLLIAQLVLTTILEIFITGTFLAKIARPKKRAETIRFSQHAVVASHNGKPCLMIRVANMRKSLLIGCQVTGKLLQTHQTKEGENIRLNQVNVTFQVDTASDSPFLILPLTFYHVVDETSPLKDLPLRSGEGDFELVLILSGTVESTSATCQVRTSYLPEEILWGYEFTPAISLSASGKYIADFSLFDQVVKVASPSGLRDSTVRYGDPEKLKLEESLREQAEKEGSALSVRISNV
# Method: (§1) Tl^+ flux assays were performed essentially as described previously, [18], [19]. Briefly, stably transfected T-Rex-HEK-293 cells expressing AeKir1 channels were cultured overnight in 384-well plates (20,000 cells/20 µL/well black-walled, clear-bottomed BD PureCoat amine-coated plates (BD, Bedford, MA) with a plating media containing DMEM, 10% dialyzed FBS and 1 µg/mL tetracycline. The next day, the cell culture medium was replaced with a dye-loading solution containing assay buffer (Hanks Balanced Salt Solution with 20 mM HEPES, pH 7.3), 0.01% (w/v) Pluronic F-127 (Life Technologies, Carlsbad, CA), and 1.2 µM of the thallium-sensitive dye Thallos-AM (TEFlabs, Austin, TX). Following 1 hr incubation at room temperature, the dye-loading solution was washed from the plates and replaced with 20 µL/well of assay buffer. […] Tl^+ flux data were analyzed as previously described, [21], [22] using a combination of Excel (Microsoft Corp, Redmond, WA) with XLfit add-in (IDBS, Guildford, Surrey, UK) and OriginPro (OriginLab, Northampton, MA) software. […] The slope of the fluorescence increase beginning 5 s after Tl^+ addition and ending 15 s after Tl^+ addition was calculated.
# Kir2.3 = target: T2, Kir2.3 (Homo sapiens, UniProt P48050); assay: Tl+ flux selectivity assay, Kir2.3; assay type: cell-based; details: n = 2 independent experiments in triplicate, read-out: Inhibition of Tl+ flux (IC50)
# T2 construct: expressed in transfected cells
# T2 sequence (P48050 1-445): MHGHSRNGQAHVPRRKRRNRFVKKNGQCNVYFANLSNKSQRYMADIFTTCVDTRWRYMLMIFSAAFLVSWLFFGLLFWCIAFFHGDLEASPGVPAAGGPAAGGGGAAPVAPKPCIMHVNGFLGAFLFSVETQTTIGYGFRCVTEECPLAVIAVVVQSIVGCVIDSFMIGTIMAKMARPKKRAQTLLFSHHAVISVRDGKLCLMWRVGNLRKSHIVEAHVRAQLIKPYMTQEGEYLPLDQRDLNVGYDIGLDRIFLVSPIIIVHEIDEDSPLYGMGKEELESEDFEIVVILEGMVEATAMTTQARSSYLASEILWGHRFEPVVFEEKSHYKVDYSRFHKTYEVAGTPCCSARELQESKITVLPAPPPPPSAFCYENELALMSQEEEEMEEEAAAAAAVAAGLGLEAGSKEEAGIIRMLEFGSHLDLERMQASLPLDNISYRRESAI
# Method: [Worded in the source for another target; used here, by the source, with some conditions changed.] as §1
# [1] = system: 68 mammalian GPCR's, ion channels, and transporters; assay: Radioligand displacement assays, panel of 68 targets; assay type: binding; details: 10 µM, active defined as >50% ligand displacement
smiles,measurement,setting,value
"CCC(=O)N1c2ccc(S(=O)(=O)Nc3cccc(OC)c3)cc2CC1C (stereo not drawn) [VU625, N-(3-methoxyphenyl)-2-methyl-1-propionylindoline-5-sulfonamide]",pIC50,Kir4.1,< 4.52
same,pIC50,Kir2.3,< 4.52
same,activity in radioligand displacement panel,[1],against only three targets
